Series [1] is described as follows: Pharmacokinetic determination in mice (PO 5 mg/kg, IV 1 mg/kg). The following applies: male, C57BL/6J, mouse, plasma, C57 mice, PO administration, 5 mpk; for AUC(0-inf): read-out: Area under the curve AUC0-∞; for half-life: read-out: Half-life t1/2 (converted); for MRT: read-out: Mean residence time MRT; for Cmax: read-out: Plasma concentration Cmax; for Tmax: read-out: Time to peak tmax. It counts as in vivo, C57BL/6J mice. In short, it runs like this: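 Fasted male C57BL/6J mice (n=3 per route) dosed PO 5 mg/kg in 10% Solutol HS15 or IV 1 mg/kg in 5% DMSO/10% Solutol HS15/85% PBS. Orbital blood sampled 0.083 (IV) to 24 h; plasma measured by LC-MS/MS, parameters by WinNonlin.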

Series [2] concerns hyperlipidemia animal model of B6-hPCSK9 transgenic mice. Kind of series: In vivo pharmacodynamic study in hyperlipidemia model of B6-hPCSK9 transgenic mice (LDL-C, TC, plasma PCSK9). Set-up: species or system B6-hPCSK9 transgenic C57 mice. The following applies: PO administration, Day 14, B6-hPCSK9 transgenic mice on high-fat feed, normalized to vehicle group. The procedure: 1. Experimental objective: The compounds of the present disclosure were evaluated for in vivo pharmacodynamics in a hyperlipidemia animal model of B6-hPCSK9 transgenic mice.
2.1 Animals: B6-hPCSK9 transgenic C57 mice, 6-8 weeks old, male, purchased from Jiangsu GemPharmatech Co., Ltd.
2.2 Animal model: After delivery to a barrier system, the animals were given one week for acclimatization and began to feed on the high-fat feed. The body weight and feed weight were weighed once a week, and the body weight and food intake thereof were recorded.
2.3 Grouping and administration • a. The animals were grouped by a random grouping method. • c. According to the grouping results, administration with the test drug was started (mode of administration: oral administration; administration volume: 10 mL/kg; frequency of administration: once/day or single administration; administration cycle: 21 days; vehicle: 10% Solutol HS 15/90% Saline). Test drug: Compounds of the present disclosure, made in house. • d. After the test drug was administered, the body weight and feed weight were weighed twice a week and blood was taken once a week. • e. The data was processed with software such as Excel. […] PCSK9 in plasma was detected by ELISA.

In series [3] the target is T1, PCSK9 protein (Homo sapiens, UniProt Q8NBP7).
T1 construct: purchased Sino biology (Sino Biological) 29698-H08H
T1 sequence (Q8NBP7 153-692): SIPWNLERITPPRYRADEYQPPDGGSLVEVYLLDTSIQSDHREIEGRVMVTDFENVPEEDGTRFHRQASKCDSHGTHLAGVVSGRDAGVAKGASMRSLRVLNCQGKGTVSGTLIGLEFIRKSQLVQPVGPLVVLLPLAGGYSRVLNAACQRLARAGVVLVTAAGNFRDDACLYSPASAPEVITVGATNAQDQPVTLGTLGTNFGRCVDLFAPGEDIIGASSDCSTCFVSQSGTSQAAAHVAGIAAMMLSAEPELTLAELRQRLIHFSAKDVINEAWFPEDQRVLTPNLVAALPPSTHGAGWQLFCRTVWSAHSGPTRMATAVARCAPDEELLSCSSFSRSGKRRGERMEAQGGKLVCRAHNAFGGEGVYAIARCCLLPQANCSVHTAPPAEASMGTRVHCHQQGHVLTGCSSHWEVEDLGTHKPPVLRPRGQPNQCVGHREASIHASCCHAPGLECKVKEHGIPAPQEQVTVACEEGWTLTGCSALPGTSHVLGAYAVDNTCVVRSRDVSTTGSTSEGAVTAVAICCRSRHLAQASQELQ
Kind of series: Binding ability to PCSK9 protein (HTRF). Particulars: PCSK9-His, Alexa Fluor 647 probe compound. The procedure:
1. Experimental objective: To detect the action of compounds to bind PCSK9 protein by an HTRF method.
3. Experimental data processing method: Four-parameter log(inhibitor) vs. response—Variable slope (four parameters) in XLit was used to perform non-linear fitting of the compound concentration and the corresponding inhibition rate, and IC50 was calculated.

The nature of series [4]: In vitro metabolic stability in human liver microsomes. It counts as in vitro ADME. Particulars: pH 7.4. On the procedure: 1. Experimental objective: The purpose of this experiment was to evaluate the metabolic stability of the compounds in phase I and partially phase II in mouse, rat and human liver microsomes, respectively.
2.1 Drug preparation: 10 mM stock solution of the compound of the present disclosure was prepared in DMSO (or other suitable solution) and stored in a −20° C. refrigerator for later use. The compound of the present disclosure was made in house.
2.2 Experimental steps • 1) Preparation of buffer: 4.01 mL of 1 M K2HPO4·3H2O (AR grade) and 0.99 mL of 1 M KH2PO4 (AR grade) were dissolved in ultrapure water and the volume was adjusted to 50 mL to prepare a phosphate buffer with a final concentration of 100 mM. • 2) Preparation of compound working solution: Preparation of compound working solution: 2 μL of the compound stock solution was added to 998 μL of phosphate buffer to a final concentration of 20 μM. According to the properties of the compound, the preparation proportions could be adjusted appropriately to adjust the final concentration. • 3) Preparation of liver microsome working solution: 156.3 μL of 20 mg/mL microsomes were diluted to 5 mL with 100 mM phosphate buffer, and the mixture was mixed well to reach a final concentration of 0.625 mg/mL. • 4) Preparation of NADPH and UDPGA: 33.3 mg of NADPH and 25.8 mg of UDPGA were weighed and added to 2 mL of 100 mM phosphate buffer to reach a final concentration of 20 mM. • 5) Preparation of pore-forming agent (Alamethicin): 1 mg of Alamethicin was weighed and added to 200 μL of methanol to prepare a 5 mg/mL solution. 10 μL of the solution was taken and added to 990 μL phosphate buffer (pH 7.4) to reach a final concentration of 50 μg/mL. • 6) Preparation of reaction stop solution: The internal standard was diluted with acetonitrile (or other suitable solution) to use as a stop solution and stored in a 2° C.-8° C. refrigerator. • 7) Incubation process: 400 μL of the prepared liver microsomes, 25 μL of the compound working solution (20 μM) and 25 μL of Alamethicin (50 μg/mL) were successively added to the 96-well plate, and the mixture was pre-incubated at 37° C. for 10 min. Then, 50 μL of prepared NADPH/UDPGA was added to start the reaction, and the mixture was incubated at 37° C. The total volume of the reaction system was 500 μL. The final contents of each component were as follows:
50 μL of samples were taken at 0, 5, 15, 30, 60 and 120 min, respectively, 200 μL of a cold stop solution containing the internal standard was added to stop the sample reaction, the mixture was centrifuged at 3500 rpm for 10 min, and the supernatant was taken and analyzed by LC-MS/MS.
Instruments: Shimadzu LC-20 AD; Chromatographic column: Phenomenex Gamin® C18 (50*4.6 mm, 5 μm particle size); mobile phase: A: 0.1% aqueous formic acid, B: acetonitrile; Elution gradient: 0.2-1.6 min, […], 3.0-3.1 min, 95% A to 5% A; Flow rate: 1.0 ml/min; Run time: 4.0 min; Injection volume: 5 μL.
Instruments: AP14000 liquid chromatography mass spectrometer, AB Sciex; Ion source: electrospray ionization source (ESI); Drying gas: N2, temperature 500° C.; Electrospray voltage: 5000 V; Detection mode: positive ion detection; Scanning mode: Reaction Monitoring (MRM) mode; Scanning time: 0.8401 s.
3. Data processing: The raw data were calculated according to the following formula: […]
The in vitro liver microsome intrinsic clearance rate (CLint) and liver intrinsic clearance rate (CLint,liver) were calculated by Ke.
Background: Microsomes from liver hold many membrane-bound enzymes, among them those of drug oxidation.

In series [5] the test system is PCSK9 secreted by HepG2 cells. Briefly: Effect on the concentration of PCSK9 secreted by HepG2 cells (ELISA). The format is cell-based. The following applies: Homo sapiens, 48 hours, PCSK9 in culture medium by ELISA. The gist of the method: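 HepG2 cells treated with compound for 48 h at 37° C., 5% CO2. Secreted PCSK9 in medium quantified by sandwich ELISA (HRP detection, OD 450 nm) against a 0–10 ng/mL standard curve. Inhibition relative to control; IC50 fitted from concentration–inhibition data.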

On to `O=C1c2cccnc2CN1c1ccc(N[C@H]2CC[C@H](Nc3nc4cc(C(F)(F)F)ccn4n3)C2)nc1` [Example 12, 6-(6-(((1S,3S)-3-((7-(trifluoromethyl)-[1,2,4]triazolo[1,5-a]pyridin-2-yl)amino)cyclopentyl)amino)pyridin-3-yl)-6,7-dihydro-5H-pyrrolo[3,4-b]pyridin-5-one], for which, in series [1], the AUC(0-inf) was 9510 ng·h/mL, the half-life is 2.9 h, the MRT came out at 2.8 h and the Cmax amounted to 4310 ng/mL. Also, the Tmax in series [1] came to 0.25 h. Further, the “LDL-C change vs vehicle (%), Day 14” value in series [2] (10 mpk) is reported as −33.75%.

As for `O=c1nc(O)c(F)cn1-c1ccc(N[C@H]2CC[C@H](Nc3nc4cc(C(F)(F)F)ccn4n3)C2)nc1` [Example 110], in series [3], the IC50 was 18.7 nM. In series [1], the AUC(0-inf) stood at 11300 ng·h/mL, the half-life is 3 h, the MRT was found to be 2.6 h and the Cmax came to 2920 ng/mL. The time to peak (Tmax) in series [1] was 1 h. For the same molecule, in series [4], the half-life at 1 µM amounted to 78.7 h and the microsomal CLint at 1 µM worked out at 0.3 µL/min/mg.

Consider `O=C1c2ncccc2CN1c1cnc(N[C@H]2CC[C@H](Nc3nc4cc(C(F)(F)F)ccn4n3)C2)c(F)c1` [Example 112, 6-(5-fluoro-6-(((1S,3S)-3-((7-(trifluoromethyl)-[1,2,4]triazolo[1,5-a]pyridin-2-yl)amino)cyclopentyl)amino)pyridin-3-yl)-5,6-dihydro-7H-pyrrolo[3,4-b]pyridin-7-one], for which the IC50 in series [3] is 8.3 nM. For the same molecule, half-maximal inhibition in series [5] (IC50) required 6900 nM. Besides, in series [1], the AUC(0-inf) stood at 33800 ng·h/mL, the half-life was 2.2 h, the MRT was found to be 4.7 h and the Cmax worked out at 5070 ng/mL. In addition, the time of peak concentration (Tmax) in series [1] was 1 h. For the same molecule, in series [2] (10 mpk), the “LDL-C change vs vehicle (%), Day 14” value is reported as −38.14%.

Turning to `O=C1c2ncc(F)cc2CN1c1cnc(N[C@H]2CC[C@H](Nc3nc4cc(OC(F)F)ccn4n3)C2)c(F)c1` [Example 154], the IC50 in series [5] is 5500 nM. In addition, in series [1], the AUC(0-inf) was determined as 13300 ng·h/mL, the half-life was 2.5 h, the MRT was 3.7 h and the Cmax worked out at 2640 ng/mL. In addition, the Tmax in series [1] came to 1 h. Moreover, in series [2] (10 mpk), the “LDL-C change vs vehicle (%), Day 14” value is listed as −35.66%.

Consider `O=C1c2ccc(C(F)(F)F)nc2CN1c1cnc(N[C@H]2CC[C@H](Nc3nc4cc(OC(F)F)ccn4n3)C2)c(F)c1` [Example 159], for which the half-maximal inhibitory concentration (IC50) in series [3] is 16.8 nM. Also, in series [1], the AUC(0-inf) was 76800 ng·h/mL, the half-life was 9.8 h, the MRT worked out at 10.7 h and the Cmax was 7660 ng/mL. The Tmax in series [1] was determined as 2 h. Moreover, in series [4], the half-life at 1 µM turned out to be 20.1 h and the microsomal CLint at 1 µM was 1.15 µL/min/mg.

Turning to `O=C1c2ncccc2CN1c1cnc(N[C@H]2CC[C@H](Nc3nc4cc(F)ccn4n3)C2)c(F)c1` [Example 164], in series [3], the IC50 was found to be 7.2 nM. In series [4], the half-life at 1 µM amounted to 15.6 h and the microsomal CLint at 1 µM was 1.48 µL/min/mg.

In the case of `O=c1ccccn1-c1cnc(N[C@H]2CC[C@H](Nc3nc4cc(F)ccn4n3)C2)c(F)c1` [Example 186, 5′-fluoro-6′-(((1S,3S)-3-((7-fluoro-[1,2,4]triazolo[1,5-a]pyridin-2-yl)amino)cyclopentyl)amino)-2H-[1,3′-bipyridine]-2-one], the IC50 in series [3] is 8.5 nM. In series [4], this molecule yielded a half-life at 1 µM of 35.4 h and a microsomal CLint at 1 µM of 0.7 µL/min/mg. For the same molecule, the “LDL-C change vs vehicle (%), Day 14” value in series [2] (10 mpk) was −51.19%.

With `O=c1nc(O)ccn1-c1cnc(N[C@H]2CC[C@H](Nc3nc4cc(F)ccn4n3)C2)c(F)c1` [Example 188], in series [4], the half-life at 1 µM turned out to be 12.6 h and the microsomal CLint at 1 µM worked out at 1.8 µL/min/mg. Further, in series [2] (10 mpk), the “LDL-C change vs vehicle (%), Day 14” value is recorded as −47.11%.

On to `O=C1c2ccnn2CCN1c1cnc(N[C@H]2CC[C@H](Nc3nc4cc(F)ccn4n3)C2)c(F)c1` [Example 201], for which the “LDL-C change vs vehicle (%), Day 14” value in series [2] (10 mpk) is recorded as −31.45%.

For the molecule `O=C1c2ccnn2CCN1c1cnc(N[C@H]2CC[C@H](Nc3nc4cc(C(F)(F)F)ccn4n3)C2)c(F)c1` [Example 212], the “LDL-C change vs vehicle (%), Day 14” value in series [2] (10 mpk) is reported as −60.08%.

Regarding `O=c1ccccn1-c1ccc(N[C@H]2CC[C@H](Nc3nc4cc(F)ccn4n3)C2)nc1` [compound 1, 6′-(((1S,3S)-3-((7-fluoro-[1,2,4]triazolo[1,5-a]pyridin-2-yl)amino)cyclopentyl)amino)-2H-[1,3′-bipyridine]-2-one, reference compound], in series [2] (6 mpk), the “LDL-C change vs vehicle (%), Day 14” value is −31.52%.

By MRT is commonly meant the average time that molecules of a dose stay in the body. The term Tmax denotes the time from dosing to the highest level. Usually IC50 stands for the concentration at which inhibition is half-maximal. Broadly, the microsomal CLint is the rate of metabolic loss divided by the concentration.

The values are drawn from patent publication US12612403B2, “Nitrogen-containing heterocyclic derivative inhibitor, and preparation method therefor and use thereof” (SHANGHAI HANSOH BIOMEDICAL CO., LTD., priority 2024, dated 2026).
